Earlier results as cited in patent US10481160B2, “Combined anticancer drug sensitivity-determining marker” (KEIO UNIVERSITY, priority 2012, dated 2019).

System: advanced/recurrent colorectal cancer
For `N.N.O=C([O-])C1(C(=O)[O-])CCC1.[Pt+2]` [CBDCA, carboplatin], the “anti-tumor effect on colorectal cancer” value is given as “ineffective”. For `O=C1[O][Pt]2([NH][C@@H]3CCCC[C@H]3[NH]2)[O]C1=O` [L-OHP, Oxaliplatin], the “anti-tumor effect on colorectal cancer” value is listed as “exhibits anti-tumor effect”. In the case of `[NH2][Pt]([NH2])([Cl])[Cl]` [CDDP, cisplatin], the “anti-tumor effect on colorectal cancer” value is given as “ineffective”.
